Data reported in ChEMBL document CHEMBL1140113, “Structural requirements for drug inhibition of the liver specific human organic cation transport protein 1” (J Med Chem, 2008).

Experiments:
[1] = target: T1, Solute carrier family 22 member 1 (Homo sapiens, UniProt O15245); assay type: cell-based, HEK293
T1 sequence (O15245 whole entry): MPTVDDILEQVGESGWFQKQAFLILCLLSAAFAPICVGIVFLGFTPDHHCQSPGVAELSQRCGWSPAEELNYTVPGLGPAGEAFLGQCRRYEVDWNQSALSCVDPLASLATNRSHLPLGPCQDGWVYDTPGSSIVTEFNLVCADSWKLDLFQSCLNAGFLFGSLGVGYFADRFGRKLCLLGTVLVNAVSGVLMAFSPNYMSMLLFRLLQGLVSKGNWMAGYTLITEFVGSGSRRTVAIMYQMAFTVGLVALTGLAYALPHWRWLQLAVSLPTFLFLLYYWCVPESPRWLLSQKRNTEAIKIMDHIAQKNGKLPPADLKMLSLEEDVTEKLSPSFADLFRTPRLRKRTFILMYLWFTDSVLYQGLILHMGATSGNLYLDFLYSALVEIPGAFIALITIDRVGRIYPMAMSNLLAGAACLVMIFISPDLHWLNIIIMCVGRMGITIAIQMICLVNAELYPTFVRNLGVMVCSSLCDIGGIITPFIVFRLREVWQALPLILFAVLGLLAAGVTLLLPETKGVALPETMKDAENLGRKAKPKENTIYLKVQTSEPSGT

OCT1 (SLC22A1) [2] = target: T2, OCT1 (SLC22A1) (Homo sapiens, UniProt O15245); experiment: in vitro
T2 sequence (O15245 whole entry): T1 sequence (O15245 whole entry)

OCT1 (SLC22A1) [3] = target: T2, OCT1 (SLC22A1); experiment: Inhibition of 4-(4-(dimethylamino)styryl)-N-methylpyridinium uptake at human OCT1 expressed in HEK293 cells at 10 uM by confocal microscopy; assay type: cell-based; conditions: HEK293 cells that express human OCT1, probe 4-(4-(dimethylamino)styryl)-N-methylpyridinium
not read = substrate: CC[N+](CC)(CC)CC; experiment: not read
[4] = HEK293 cells that express human OCT1, probe 4-(4-(dimethylamino)styryl)-N-methylpyridinium

## CNCCCN1c2ccccc2CCc2ccccc21 [DESIPRAMINE]
[1]
  IC50: 56.8 µM
OCT1 (SLC22A1) [2]; hek293
  inhibition at 100 µM: 84.3%

## O=C(CCCN1CCC(O)(c2ccc(Cl)cc2)CC1)c1ccc(F)cc1 [HALOPERIDOL]
[1]
  IC50: 142 µM
OCT1 (SLC22A1) [2]; [4]
  inhibition at 100 µM: 67.1%

## CC(C)NCC(O)COc1cccc2ccccc12 (stereo unspecified) [PROPRANOLOL]
[1]
  IC50: 63.2 µM
OCT1 (SLC22A1) [2]; [4]
  inhibition at 100 µM: 55.4%

## COc1cc(NS(C)(=O)=O)ccc1Nc1c2ccccc2nc2ccccc12 [AMSACRINE]
[1]
  IC50: 5 µM
OCT1 (SLC22A1) [2]; [4]
  inhibition at 100 µM: 68.4%

## C=CCOc1ccccc1OCC(O)CNC(C)C (stereo unspecified) [OXPRENOLOL]
[1]
  IC50: 28.6 µM
OCT1 (SLC22A1) [2]; hek293
  inhibition at 100 µM: 61.5%

## CCOc1cc(CC(=O)N[C@@H](CC(C)C)c2ccccc2N2CCCCC2)ccc1C(=O)O [REPAGLINIDE]
[1]
  IC50: 9.2 µM
OCT1 (SLC22A1) [2]; [4]
  inhibition at 100 µM: 76.4%

## CN1CCc2cccc3c2[C@H]1Cc1ccc(O)c(O)c1-3 [APOMORPHINE]
[1]
  IC50: 20.8 µM
OCT1 (SLC22A1) [2]; [4]
  inhibition at 100 µM: 69%

## CC(CN(C)C)CN1c2ccccc2CCc2ccccc21 (stereo unspecified) [TRIMIPRAMINE]
[1]
  IC50: 27.7 µM
OCT1 (SLC22A1) [2]; [4]
  inhibition at 100 µM: 77.2%

## CC12CC3CC(C)(C1)CC(N)(C3)C2 [MEMANTINE]
[1]
  IC50: 27.2 µM
OCT1 (SLC22A1) [2]; [4]
  inhibition at 100 µM: 58.6%

## Cc1nccn1CC1CCc2c(c3ccccc3n2C)C1=O (stereo unspecified) [ONDANSETRON]
[1]
  IC50: 20.4 µM
OCT1 (SLC22A1) [2]; hek293
  inhibition at 100 µM: 63.8%

## COc1cccc(C2(O)CCCCC2CN(C)C)c1 (stereo unspecified) [TRAMADOL]
[1]
  IC50: 52.5 µM
OCT1 (SLC22A1) [2]; [4]
  inhibition at 100 µM: 60.2%

## CC(COc1ccccc1)N(CCCl)Cc1ccccc1 (stereo unspecified) [PHENOXYBENZAMINE]
[1]
  IC50: 15.1 µM
OCT1 (SLC22A1) [2]; [4]
  inhibition at 100 µM: 56.7%

## CN(C)C(=O)C(CCN1CCC(O)(c2ccc(Cl)cc2)CC1)(c1ccccc1)c1ccccc1 [LOPERAMIDE]
[1]
  IC50: 23.7 µM
OCT1 (SLC22A1) [2]; hek293
  inhibition at 100 µM: 73.4%

## N=C(N)NC(=O)c1nc(Cl)c(N)nc1N [AMILORIDE]
[1]
  IC50: 57 µM
OCT1 (SLC22A1) [2]; [4]
  inhibition at 100 µM: 68.7%

## CN(C)CCCN1c2ccccc2CCc2ccc(Cl)cc21 [CLOMIPRAMINE]
[1]
  IC50: 19.3 µM
OCT1 (SLC22A1) [2]; [4]
  inhibition at 100 µM: 85.3%

## CC(C)(Cc1c[nH]c2ccccc12)NCC(O)COc1ccccc1C#N (stereo unspecified) [BUCINDOLOL]
[1]
  IC50: 27.2 µM
OCT1 (SLC22A1) [2]; [4]
  inhibition at 100 µM: 84.6%

## CN(C)CCCN1c2ccccc2Sc2ccccc21 [PROMAZINE]
[1]
  IC50: 17.2 µM
OCT1 (SLC22A1) [2]; [4]
  inhibition at 100 µM: 79.2%

## CN(C)CCCN1c2ccccc2CCc2ccccc21 [IMIPRAMINE]
[1]
  IC50: 17.1 µM
OCT1 (SLC22A1) [2]; hek293
  inhibition at 100 µM: 82.8%

## COc1ccc([C@@H]2Sc3ccccc3N(CCN(C)C)C(=O)[C@@H]2OC(C)=O)cc1 [DILTIAZEM]
[1]
  IC50: 12.4 µM
OCT1 (SLC22A1) [2]; [4]
  inhibition at 100 µM: 65.5%

## CN(C)CC/C=C1/c2ccccc2Sc2ccc(Cl)cc21 [CHLORPROTHIXENE]
[1]
  IC50: 77.8 µM
OCT1 (SLC22A1) [2]; [4]
  inhibition at 100 µM: 65.4%

## CC(CN1c2ccccc2Sc2ccccc21)N(C)C (stereo unspecified) [PROMETHAZINE]
[1]
  IC50: 35.1 µM
OCT1 (SLC22A1) [2]; [4]
  inhibition at 100 µM: 71.1%

## COc1cc2nc(N3CCN(C(=O)c4ccco4)CC3)nc(N)c2cc1OC [PRAZOSIN]
OCT1 (SLC22A1) [3]
  inhibition at 10 µM: 55.6%
[1]
  IC50: 9.9 µM
OCT1 (SLC22A1) [2]; hek293
  inhibition at 100 µM: 55.6%

## CN1CCC[C@@H]1CCO[C@](C)(c1ccccc1)c1ccc(Cl)cc1 [CLEMASTINE]
[1]
  IC50: 4.9 µM
OCT1 (SLC22A1) [2]; [4]
  inhibition at 100 µM: 78.8%

## C[N+]1(C)CCCC(OC(=O)C(O)(c2ccccc2)c2ccccc2)C1 (stereo unspecified) [MEPENZOLATE BROMIDE]
[1]
  IC50: 64.9 µM
OCT1 (SLC22A1) [2]; [4]
  inhibition at 100 µM: 59.5%

## C[C@]12CC[C@H]3[C@@H](CCC4=CC(=O)CC[C@@H]43)[C@@H]1CC[C@@H]2O [NANDROLONE]
[1]
  IC50: 35.1 µM
OCT1 (SLC22A1) [2]; hek293
  inhibition at 100 µM: 79.3%

## COc1ccc(CCNC[C@H](O)c2ccc(O)cc2)cc1OC [DENOPAMINE]
[1]
  IC50: 46.9 µM
OCT1 (SLC22A1) [2]; hek293
  inhibition at 100 µM: 51.5%

## CN1CCN(CCCN2c3ccccc3Sc3ccc(Cl)cc32)CC1 [PROCHLORPERAZINE]
[1]
  IC50: 49.6 µM
OCT1 (SLC22A1) [2]; [4]
  inhibition at 100 µM: 66.5%

B1: Solute carrier family 22 member 1 (Homo sapiens) (protein)
chain: T1 sequence (O15245 whole entry)
Not read
  Km: 2.32 µM
